The source of these data is the Kinase Knowledgebase extract (Sharma et al. 2016).

The target in experiment [1] is EGFR (Human), P00533 [T790M/L858R]. The following applies: h1975.
Experiment [2] deals with EGFR (Human), P00533 [Assessment of HCC827 (EGFR Del) Cell Proliferation].
Experiment [3] deals with EGFR (human), P00533 [T790M].
Experiment [4] addresses EGFR (human), P00533 [L858R].
The target in experiment [5] is EGFR (Human), P00533 [T790M/L858R].
The target in experiment [6] is EGFR (human), P00533 [WT]. The conditions noted are these: a431.
Sequence of EGFR (human), P00533 [WT] (P00533 whole entry, looked up): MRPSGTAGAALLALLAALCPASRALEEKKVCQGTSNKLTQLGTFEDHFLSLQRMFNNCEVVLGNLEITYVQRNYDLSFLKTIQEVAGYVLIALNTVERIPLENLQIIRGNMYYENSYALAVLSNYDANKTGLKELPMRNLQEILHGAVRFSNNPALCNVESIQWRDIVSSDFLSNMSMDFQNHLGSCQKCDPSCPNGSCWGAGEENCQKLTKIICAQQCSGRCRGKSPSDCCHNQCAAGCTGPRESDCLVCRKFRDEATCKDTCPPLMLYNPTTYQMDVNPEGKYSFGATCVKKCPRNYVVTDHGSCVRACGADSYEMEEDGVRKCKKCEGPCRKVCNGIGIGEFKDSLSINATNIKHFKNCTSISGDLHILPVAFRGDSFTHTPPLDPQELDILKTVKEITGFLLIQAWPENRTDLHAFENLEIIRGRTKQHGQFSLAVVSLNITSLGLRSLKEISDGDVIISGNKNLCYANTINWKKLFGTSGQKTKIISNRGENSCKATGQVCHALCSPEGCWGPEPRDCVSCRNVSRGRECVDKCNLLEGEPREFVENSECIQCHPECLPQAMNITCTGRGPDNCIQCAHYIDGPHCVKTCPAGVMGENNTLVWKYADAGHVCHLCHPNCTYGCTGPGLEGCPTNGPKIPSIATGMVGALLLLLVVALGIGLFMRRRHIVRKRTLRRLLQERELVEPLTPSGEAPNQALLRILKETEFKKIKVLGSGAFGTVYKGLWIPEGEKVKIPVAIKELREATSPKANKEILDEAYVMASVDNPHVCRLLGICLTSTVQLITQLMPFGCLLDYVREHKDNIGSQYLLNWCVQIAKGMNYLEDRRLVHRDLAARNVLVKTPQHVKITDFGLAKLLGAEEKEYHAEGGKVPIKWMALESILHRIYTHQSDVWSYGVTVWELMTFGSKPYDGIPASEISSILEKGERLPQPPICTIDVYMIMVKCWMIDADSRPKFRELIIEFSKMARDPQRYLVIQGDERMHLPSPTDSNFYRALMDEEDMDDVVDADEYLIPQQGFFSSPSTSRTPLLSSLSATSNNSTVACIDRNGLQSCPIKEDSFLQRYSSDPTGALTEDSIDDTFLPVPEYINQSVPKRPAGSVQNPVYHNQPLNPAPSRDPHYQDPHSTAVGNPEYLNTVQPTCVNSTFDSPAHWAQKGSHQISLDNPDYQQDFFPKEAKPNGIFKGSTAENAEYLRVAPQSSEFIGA
The target of experiment [7] is EGFR (human), P00533 [WT]. The conditions noted are these: a549.

Sequence of EGFR (Human), P00533 [Assessment of HCC827 (EGFR Del) Cell Proliferation] (P00533 whole entry, looked up, stated change not applied): as the sequence (P00533 whole entry, looked up) above
Sequence of EGFR (Human), P00533 [T790M/L858R] (P00533 whole entry T790M/L858R, looked up): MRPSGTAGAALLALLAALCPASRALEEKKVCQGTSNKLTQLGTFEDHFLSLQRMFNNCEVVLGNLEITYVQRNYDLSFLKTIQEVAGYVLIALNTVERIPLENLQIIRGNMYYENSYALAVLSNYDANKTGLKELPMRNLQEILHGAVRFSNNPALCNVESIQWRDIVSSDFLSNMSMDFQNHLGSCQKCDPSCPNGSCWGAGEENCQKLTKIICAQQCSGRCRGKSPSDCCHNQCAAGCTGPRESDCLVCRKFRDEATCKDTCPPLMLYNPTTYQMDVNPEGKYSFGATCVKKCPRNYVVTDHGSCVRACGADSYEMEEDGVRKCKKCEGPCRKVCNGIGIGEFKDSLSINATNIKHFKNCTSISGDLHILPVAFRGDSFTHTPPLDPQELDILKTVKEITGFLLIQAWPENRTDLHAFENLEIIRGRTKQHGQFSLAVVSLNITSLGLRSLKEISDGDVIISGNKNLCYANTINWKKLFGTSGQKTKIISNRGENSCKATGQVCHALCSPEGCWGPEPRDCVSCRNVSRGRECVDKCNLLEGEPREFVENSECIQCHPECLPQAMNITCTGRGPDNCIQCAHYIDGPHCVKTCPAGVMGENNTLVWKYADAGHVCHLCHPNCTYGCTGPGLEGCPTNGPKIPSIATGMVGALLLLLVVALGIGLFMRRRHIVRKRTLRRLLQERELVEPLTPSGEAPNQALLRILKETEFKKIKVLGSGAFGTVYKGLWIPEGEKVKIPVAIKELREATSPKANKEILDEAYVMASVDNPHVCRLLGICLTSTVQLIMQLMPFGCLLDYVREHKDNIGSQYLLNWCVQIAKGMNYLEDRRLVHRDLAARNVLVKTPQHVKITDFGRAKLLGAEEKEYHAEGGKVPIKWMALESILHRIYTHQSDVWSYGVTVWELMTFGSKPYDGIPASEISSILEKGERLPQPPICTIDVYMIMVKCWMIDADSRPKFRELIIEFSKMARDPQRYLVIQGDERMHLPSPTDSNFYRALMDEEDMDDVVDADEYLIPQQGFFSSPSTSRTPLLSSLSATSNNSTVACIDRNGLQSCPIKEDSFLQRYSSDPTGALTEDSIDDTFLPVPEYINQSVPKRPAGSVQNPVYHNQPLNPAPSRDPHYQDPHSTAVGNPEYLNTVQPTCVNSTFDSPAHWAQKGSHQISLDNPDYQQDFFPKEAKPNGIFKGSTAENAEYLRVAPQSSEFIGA
Sequence of EGFR (human), P00533 [T790M] (P00533 whole entry T790M, looked up): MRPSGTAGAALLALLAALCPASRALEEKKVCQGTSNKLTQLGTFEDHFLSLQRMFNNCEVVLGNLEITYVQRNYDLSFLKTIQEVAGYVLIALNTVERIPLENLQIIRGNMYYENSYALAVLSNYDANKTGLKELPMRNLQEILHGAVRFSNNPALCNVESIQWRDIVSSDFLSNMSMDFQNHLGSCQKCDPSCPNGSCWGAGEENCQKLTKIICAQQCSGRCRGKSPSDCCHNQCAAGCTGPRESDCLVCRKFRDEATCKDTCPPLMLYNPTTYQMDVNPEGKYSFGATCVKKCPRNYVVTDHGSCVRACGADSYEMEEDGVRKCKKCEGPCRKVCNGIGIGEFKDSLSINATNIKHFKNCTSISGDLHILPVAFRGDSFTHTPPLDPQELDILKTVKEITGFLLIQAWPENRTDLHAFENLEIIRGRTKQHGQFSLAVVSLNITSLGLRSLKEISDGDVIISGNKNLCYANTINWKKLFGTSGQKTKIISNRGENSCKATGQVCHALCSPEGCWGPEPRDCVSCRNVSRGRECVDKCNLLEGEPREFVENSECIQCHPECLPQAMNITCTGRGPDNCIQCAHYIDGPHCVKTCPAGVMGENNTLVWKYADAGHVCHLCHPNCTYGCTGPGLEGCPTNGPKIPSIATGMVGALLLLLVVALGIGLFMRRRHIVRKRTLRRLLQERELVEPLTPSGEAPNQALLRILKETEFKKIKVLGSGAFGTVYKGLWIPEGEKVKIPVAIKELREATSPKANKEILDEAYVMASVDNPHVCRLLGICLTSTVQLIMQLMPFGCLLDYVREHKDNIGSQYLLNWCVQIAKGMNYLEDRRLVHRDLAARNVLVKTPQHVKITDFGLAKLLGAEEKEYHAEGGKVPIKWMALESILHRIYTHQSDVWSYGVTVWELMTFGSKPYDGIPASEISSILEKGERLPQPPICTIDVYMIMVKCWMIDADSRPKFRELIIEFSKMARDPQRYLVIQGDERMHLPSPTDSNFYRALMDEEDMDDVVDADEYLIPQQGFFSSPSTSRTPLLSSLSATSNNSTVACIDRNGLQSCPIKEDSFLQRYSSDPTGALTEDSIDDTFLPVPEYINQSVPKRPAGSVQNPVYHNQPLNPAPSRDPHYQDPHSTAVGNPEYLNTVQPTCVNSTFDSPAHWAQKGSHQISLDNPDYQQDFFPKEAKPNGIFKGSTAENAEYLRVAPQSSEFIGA

Consider `COc1cc(N2CCN(C)CC2)ccc1Nc1ncc(Cl)c(Nc2ccccc2C(=O)C(=O)N2CCOCC2)n1`, for which the figures for the IC50 in experiment [1] and in experiment [2] were 1230 nM and 2360 nM, respectively.
With `COc1cc(N2CCC(N(C)C)CC2)ccc1Nc1ncc(Cl)c(Nc2ccccc2C(=O)C(N)=O)n1`, the IC50 in experiment [3] worked out at 7.52 nM; in experiment [4] it was 44.3 nM; in experiment [5], 4.08 nM; in experiment [2], 2630 nM.
As to `C=CC(=O)Nc1cc(Nc2ncc(Cl)c(Nc3ccccc3C(=O)C(=O)NC)n2)ccc1OC`, the IC50 turned out to be 90 nM in experiment [1] and 450 nM in experiment [2].
As for `C=C(CN(C)CCN(C)C)C(=O)Nc1ccc(OC)c(Nc2ncc(Cl)c(Nc3ccccc3C(=O)C(=O)N(C)C)n2)c1`, the results for the IC50 in experiment [1], in experiment [6] and in experiment [2] were 10 nM, 210 nM and 20 nM, respectively.
With `C=CC(=O)Nc1cccc(Nc2ncc(Cl)c(Nc3ccccc3C(=O)C(=O)NC)n2)c1`, the IC50 in experiment [1] amounted to 100 nM; in experiment [2], 270 nM.
Take `C=C(CN1CCOCC1)C(=O)Nc1cccc(Nc2ncc(Cl)c(Nc3ccccc3C(=O)C(=O)N(C)C)n2)c1`: the IC50 was 10 nM in experiment [1], 100 nM in experiment [6], 40 nM in experiment [7] and 30 nM in experiment [2].
For `C=CC(=O)Nc1ccc(OC)c(Nc2ncc(Cl)c(Nc3ccccc3C(=O)C(=O)N(C)C)n2)c1`, in that order: 20 nM, 110 nM, 1580 nM and 20 nM.
On to `COc1cc(N2CCN(C(C)=O)CC2)ccc1Nc1ncc(Cl)c(Nc2ccccc2C(=O)C(=O)N(C)C)n1`, for which the IC50 in experiment [1] was 210 nM; in experiment [6] it was 50 nM; in experiment [2], 540 nM.
Consider `COc1cc(N2CCC(N(C)C)CC2)ccc1Nc1ncc(Cl)c(Nc2ccccc2C(=O)C(=O)NO)n1`, for which the IC50 in experiment [1] came to 840 nM; in experiment [2], 940 nM.
Regarding `C=CC(=O)Nc1cccc(Nc2ncc(C(F)(F)F)c(Nc3ccccc3C(=O)C(N)=O)n2)c1`, the IC50 came to 980 nM in experiment [1], 370 nM in experiment [7] and 530 nM in experiment [2].
For the compound `C=CC(=O)Nc1cc(Nc2ncc(Cl)c(Nc3ccccc3C(=O)C(=O)N(C)C)n2)c(OC)cc1F`, the IC50 in experiment [1] turned out to be 50 nM; in experiment [2], 120 nM.
Turning to `C/C=C/C(=O)Nc1ccc(OC)c(Nc2ncc(Cl)c(Nc3ccccc3C(=O)C(=O)N(C)C)n2)c1`, the IC50 was 310 nM in experiment [1], 1370 nM in experiment [7] and 1050 nM in experiment [2].
In the case of `CNC(=O)C(=O)c1ccccc1Nc1nc(Nc2ccc(F)c(OC)c2)ncc1Cl`, in experiment [1], the half-inhibitory concentration (IC50) turned out to be 640 nM.
On to `C=CC(=O)Nc1cc(Nc2ncc(Cl)c(Nc3ccccc3C(=O)C(=O)NC)n2)c(F)cc1OC`, for which the results for the IC50 in experiment [1] and in experiment [2] were 650 nM and 1200 nM, respectively.
`C=CC(=O)Nc1cc(Nc2ncc(Cl)c(Nc3ccccc3C(=O)C(=O)N(C)C)n2)c(F)cc1OC`: the IC50 was found to be 310 nM in experiment [1] and 1200 nM in experiment [2].
The like results for `C=CC(=O)Nc1cc(Nc2ncc(Cl)c(Nc3ccccc3C(=O)C(=O)N(C)C)n2)ccc1OC` were, in that order, 20 nM and 120 nM.
For `COc1cc(N2CCOCC2)ccc1Nc1ncc(Cl)c(Nc2ccccc2C(=O)C(=O)N(C)C)n1`, in that order: 1950 nM and 1940 nM.
Regarding `C=CC(=O)Nc1ccc(OC)c(Nc2ncc(Cl)c(Nc3ccccc3C(=O)C(=O)N(CC)CC)n2)c1`, the IC50 in experiment [1] came to 10 nM; in experiment [6], 750 nM; in experiment [2], 50 nM.
In turn, `COc1cc(N2CCC(N(C)C)CC2)ccc1Nc1ncc(Cl)c(Nc2ccccc2C(=O)C(=O)N2CCOCC2)n1` came in with an IC50 in experiment [1] of 2860 nM.
For `C=CC(=O)Nc1cccc(Nc2ncc(Cl)c(Nc3ccccc3C(=O)C(=O)N(C)C)n2)c1`, the values for the IC50 in experiment [1], in experiment [7] and in experiment [2] were 10 nM, 640 nM and 70 nM, respectively.
In experiment [1], `C=CC(=O)N1CCC(NC(=O)C(=O)c2ccccc2Nc2nc(Nc3ccc(F)c(OC)c3)ncc2Cl)CC1` yielded an IC50 of 190 nM.
As for `CNC(=O)C(=O)c1ccccc1Nc1nc(Nc2ccc(N3CCN(C)CC3)c(OC)c2)ncc1Cl`, the IC50 in experiment [1] is 150 nM; in experiment [7] it was 2080 nM; in experiment [2], 870 nM.
Take `CNC(=O)C(=O)c1ccccc1Nc1nc(Nc2ccc(N3CCC(N(C)C)CC3)cc2OC)ncc1Cl`: the results for the IC50 in experiment [1] and in experiment [2] were 1130 nM and 900 nM, respectively.
In the case of `COc1cc(Nc2ncc(Cl)c(Nc3ccccc3C(=O)C(=O)N(C)C)n2)ccc1F`, in experiment [2], the IC50 was determined as 2330 nM.
`COc1cc(N2CCN(C)CC2)ccc1Nc1ncc(Cl)c(Nc2ccccc2C(=O)C(=O)N(C)C)n1`: the IC50 in experiment [1] was determined as 810 nM; in experiment [2], 1630 nM.
Turning to `C=CC(=O)Nc1cc(Nc2ncc(Cl)c(Nc3ccccc3C(=O)C(=O)N(C)C)n2)c(OC)cc1N1CCN(C)CC1`, the IC50 in experiment [1] was 50 nM; in experiment [6] it was 50 nM; in experiment [7] it was 620 nM; in experiment [2] it was 30 nM.
For `COc1cc(Nc2ncc(Cl)c(Nc3ccccc3C(=O)C(=O)N(C)C)n2)ccc1N1CCC(N(C)C)CC1`, the IC50 in experiment [1] amounted to 10 nM; in experiment [6], 10 nM; in experiment [7], 1890 nM; in experiment [2], 20 nM.
For the compound `COc1cc(N2CCC(N(C)C)CC2)ccc1Nc1ncc(Cl)c(Nc2ccccc2C(=O)C(=O)N(C)C)n1`, the figures for the IC50 in experiment [1], in experiment [6] and in experiment [2] were 860 nM, 260 nM and 1230 nM, respectively.

The term IC50 denotes the concentration needed to halve the response being measured. Higher therefore signals lower potency.
